1 substance from patent US11136367B2, “Multi-level specific targeting of cancer cells” (Wake Forest University Health Sciences, priority 2010, dated 2021) can be followed below.

In data set [1] the target is T1, IL-13Rα2 receptor on GBM cells (U-251 MG) (Homo sapiens, UniProt Q14627).
T1 construct: endogenous in cells; host or cells: U-251 MG human glioblastoma cells (ATCC)
T1 sequence (Q14627 27-380): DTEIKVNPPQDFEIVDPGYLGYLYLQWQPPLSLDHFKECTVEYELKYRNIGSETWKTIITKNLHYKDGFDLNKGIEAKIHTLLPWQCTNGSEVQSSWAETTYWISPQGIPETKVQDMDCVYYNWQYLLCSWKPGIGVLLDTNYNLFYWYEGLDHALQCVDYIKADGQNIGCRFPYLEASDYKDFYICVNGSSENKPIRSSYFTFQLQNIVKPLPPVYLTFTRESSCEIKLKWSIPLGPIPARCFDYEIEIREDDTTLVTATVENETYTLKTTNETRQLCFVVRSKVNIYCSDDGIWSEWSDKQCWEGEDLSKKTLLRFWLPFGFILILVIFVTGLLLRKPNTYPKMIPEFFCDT
Nature of the data set: Colorimetric MTS/PMS cell viability assay: neutralization of IL-13.E13K-PE38QQR cytotoxicity (competition for receptor). Type of data set: cell-based. Here is the method: 1× 10^3 U-251 MG cells were plated per well in quadruplicates for each concentration to be tested. IL-13.E13K-PE38QQR is an IL-13Rα2 based cytotoxin against GBM (24). After 24 hours incubation at […] for the cells to attach, a fixed concentration (i.e. 1 μM) of the IL13.E13K-D2-NLS and other purified proteins were added and incubated at 37° C. for 1 hr. After 1 hr. incubation, increasing concentrations of the IL-13.E13K-PE38QQR ranging from 0.1 to 100 ng/ml was added and the plate was incubated for 48 hr. Cells treated with cyclohexamide and just the cytotoxins were used as controls. After 48 hr., cell viability was measured using the MTS [3-(4,5-dimethylthiazol-2-yl)-543-carboxymethoxyphenyl)-2-(4-sulfophenyl)-2H-tetrazolium]/PMS [phenazine methosulfate] dye (Promega, Madison, Wis.) as per the manufacturer's instructions. The absorbance from the assay was measured at 490 nm using the plate reader Spectra max 340 PC (Molecular Devices, Sunnyvale, Calif.) and data was plotted as percentage of control versus concentration of the toxin used.
To this end, we carried out a cell-viability assay in which these recombinant proteins bound to the IL-13Rα2 receptor and protected against cytotoxic action of IL-13.E13K-PE38QQR. […]

For data set [2], the system named is IL-13Rα2 positive U-251 MG cells. Nature of the data set: Localization of biotin-conjugated proteins, tyramide signal amplification, confocal microscopy. It counts as cell-based, Human. As to the method: Biotin-XX microscale protein labeling kit (Invitrogen, Carlsbad, Calif.) was used to label the proteins as per the manufacturer's instructions. A different molar ratio of 12, 8 or 4 biotin-dye to the proteins was used. The biotin-labeled proteins were run on a gel and a western blot carried out using streptavidin-HR.P (Pierce, Rockford, Ill.) to detect for biotin-labeled proteins. The number of Biotin molecules attached to the proteins was determined by the Biofluoreporter assay kit (Invitrogen) as per the manufacturer's guidelines.
12,500 U-251 MG GBM cells were plated on coverslips per well in a 24-well plate. […] After the incubations, the cells were fixed with 4% paraformaldehyde (Ted Pella, Redding, Calif.) for 15 mins at 37° C. and washed with PBS 4× times. The cells were then permeabilized with 0.1% Triton-X-100/0.2% BSA-PBS for 10 min at RT. After permeabilization, the cells were washed 3 times with 1×PBS. After washings, Tyramide signal amplification kit (Invitrogen, Carlsbad, Calif.) using Alexa fluor 488 dyes and HR.P-streptavidin was carried out as per manufacturer's instructions. Topro-3 iodide (Invitrogen, Carlsbad, Calif.) was added at a concentration of 1:1000 dilution of the 1 mM stock to stain the cell nuclei. […]

The subject of data set [3] is G48a GBM cells, which over-express IL-13Rα2. Description: Localization of biotin-conjugated proteins in G48a GBM cells. It counts as cell-based. As to the method:
12,500 U-251 MG GBM cells were plated on coverslips per well in a 24-well plate. […] After the incubations, the cells were fixed with 4% paraformaldehyde (Ted Pella, Redding, Calif.) for 15 mins at 37° C. and washed with PBS 4× times. The cells were then permeabilized with 0.1% Triton-X-100/0.2% BSA-PBS for 10 min at RT. After permeabilization, the cells were washed 3 times with 1×PBS. After washings, Tyramide signal amplification kit (Invitrogen, Carlsbad, Calif.) using Alexa fluor 488 dyes and HR.P-streptavidin was carried out as per manufacturer's instructions. Topro-3 iodide (Invitrogen, Carlsbad, Calif.) was added at a concentration of 1:1000 dilution of the 1 mM stock to stain the cell nuclei. After the tyramide staining, wells were washed and mounted with gel mount (Biomeda, Foster City, Calif.) and observed with LSM 510 Zeiss Confocal Microscope (Cellular Imaging Core, Comprehensive Cancer Center, Wake Forest University) and the images processed using Zeiss LSM Image Browser (version 4.2).
We repeated the above experiments in another GBM cell line, G48a (13), which over-expresses IL-13Rα2. We obtained similar results as with the U-251 MG cells.

For data set [4], the system named is LN229 cells, very low expressors of IL-13Rα2. Description: Localization of biotin-labeled proteins in LN229 cells. It counts as cell-based, Human. The settings on record: 24 hr. As to the method:
12,500 U-251 MG GBM cells were plated on coverslips per well in a 24-well plate. After 24 hr., 1 μM/well of biotin-labeled proteins was added onto the U-251 MG cells for 15 min, 4, 8 and 24 hr. After the incubations, the cells were fixed with 4% paraformaldehyde (Ted Pella, Redding, Calif.) for 15 mins at 37° C. and washed with PBS 4× times. The cells were then permeabilized with 0.1% Triton-X-100/0.2% BSA-PBS for 10 min at RT. After permeabilization, the cells were washed 3 times with 1×PBS. After washings, Tyramide signal amplification kit (Invitrogen, Carlsbad, Calif.) using Alexa fluor 488 dyes and HR.P-streptavidin was carried out as per manufacturer's instructions. Topro-3 iodide (Invitrogen, Carlsbad, Calif.) was added at a concentration of 1:1000 dilution of the 1 mM stock to stain the cell nuclei. After the tyramide staining, wells were washed and mounted with gel mount (Biomeda, Foster City, Calif.) and observed with LSM 510 Zeiss Confocal Microscope (Cellular Imaging Core, Comprehensive Cancer Center, Wake Forest University) and the images processed using Zeiss LSM Image Browser (version 4.2).
We carried out identical experiments with biotin-labeled IL-13.E13K-D2-NLS in LN229 cells, very low expressors of IL-13Rα2.

For the substance IL-13.E13K, the “protection against cytotoxic action of IL-13.E13K-PE38QQR (competition for IL-13Rα2)” value in data set [1] (U-251 MG cells, 1 μM protein 1 hr before 0.1 to 100 ng/ml cytotoxin, 48 hr) is “blocked the action of the cytotoxin”. Moreover, in data set [1] (biotin-conjugated proteins), the “binding of biotin-conjugated proteins to IL-13Rα2 on GBM cells” value is reported as “bind to the IL-13Rα2”. The subcellular localization result was “demonstrate the results observed at 24 hr” in data set [2] (biotin label, 8, 4 hr and 5 min, data not shown); “accumulated mainly in the peri-nuclear region” in data set [2] (biotin label, 24 hr.); “cytosolic/perinuclear localization” in data set [3] (biotin label, 4, 8 and 24 hr.); “cell membrane binding” in data set [3] (biotin label, 5 min). Moreover, the nuclear localization entry in data set [3] (any of the time-points) is on record as “not found to have any nuclear localization”. For the same substance, in data set [4], the “cytosolic or perinuclear localization” value is reported as “no cytosolic or perinuclear localization”.
